According to publication PMC6373292 (Pharmaceutical Research, 2019):
“Also recorded” adds a separate entry of the source.

Experiments:
skin perfusion [1] = experiment: Laser speckle contrast analysis (LASCA) of skin perfusion in pigs; format: in vivo, pig; settings: anesthetized pigs, intradermal injection in neck, niacinamide 170 mM, 1-methyl-niacinamide 170 mM, prostaglandin E1 10 μg/ml, 0–15 min, n=4
Procedure: Formulations of prostaglandin E1 (10 μg/ml), niacinamide (170 mM) or saline were injected intradermally in the neck area of anesthetized pigs. A PeriCam PSI system (Perimed, Sweden) was used to record one image per second for approximately 15 min. Perfusion units per min were compared using one-way ANOVA.
Niacinamide increases subcutaneous blood flow in pigs
Video: Representative LASCA perfusion experiment.
LASCA images were recorded following intradermal injection of saline, prostaglandin E1 and niacinamide formulations into the neck area of anesthetized pigs. Saline (170 mM NaCl, 10 mM phosphate, pH 7.4) was injected into region 1 (blue) and 6 (black), 10 µg/ml prostaglandin E1 (170 mM NaCl, 10 mM phosphate, pH 7.4) was injected into region 2 (red), 170 mM niacinamide (85 mM NaCl, 10 mM phosphate, pH 7.4) was […]
was necessary). Compound x (region 4, dark red) was an additional compound studied for vasodilation but is not included in the present analysis.
(1 picture or pasted object on this page, not shown here)

[2] = system: porcine subcutaneous arteries; experiment: Ex vivo vasorelaxation of U46619-preconstricted arteries (wire myograph); parameters: species or system pig; settings: isolated porcine subcutaneous arteries preconstricted with U46619 (1 μM); for Effect on vascular tone (vasorelaxation): niacinamide at 200 mM, 1-methyl-niacinamide cumulative concentrations, two animals
Procedure: Vessels were cut into 1.5 mm cylindrical segments, threaded onto two 40 μm diameter stainless steel wires and mounted on a Mulvany-Halpern myograph (Danish Myograph Technology, A/S). […] Contractile force was recorded via a PowerLab unit and Labchart software (AD Instruments). Vessels were pre-stretched in calcium-free PSS to a lumen diameter of 0.9 × L100, where L100 is an estimate of the diameter of the vessel under a passive transmural pressure of 100 mmHg. This was performed using the normalization module in LabChart7.

skin perfusion [3] = experiment: Laser Doppler imaging (LDI) of skin perfusion in pigs; format: in vivo, pig; settings: anesthetized pigs, subcutaneous injection at 3 mm depth, niacinamide 170 mM, prostaglandin E1 10 μg/ml, baseline corrected, n=4
Procedure: LDI (moorLDI2-IR, Moor Instruments, UK) was used to record a series of images (approximately one image per 3.5 min for approximately 30 min) following a protocol in anesthetized pigs similar to the one used for LASCA. Due to the increased skin penetration depth of the LDI system, subcutaneous injections were performed at a 3 mm depth using a 32G needle. Injections were performed in areas that could be scanned in the same image.

[4] = Disappearance of niacinamide and 1-methyl-niacinamide from subcutaneous injection depots in pigs (tissue sampling, LC-MS/MS); settings: 170 mM, 50 μl, LC-MS/MS of tissue homogenate, n=9
Procedure: Pigs (70–90 kg) were anesthetized using Zoletil mixture (1 mg/10 kg; Virbac, Denmark) with intravenous supplement of propolipid (Fresenius Kabi, Sweden). […] Tissue samples measuring ~2 x 2 cm were excised at 0 min (acute), 2, 5, 15 or 60 min after injection and immediately frozen in 2-methyl-butane. […] Following euthanasia by overdose of pentobarbital (Lundbeck, Denmark), tissue samples measuring ~10 x 10 cm were excised and injected to obtain ex vivo 0 min (acute) and 60 min depots.
Tissue samples were cut into smaller blocks, thawed and diluted with phosphate buffer (180 mM; pH 7.4) at a ratio of 3 ml to 1 g of tissue. Tissue was homogenized with two cycles (one cycle consisting of 10 sec homogenization, 60 sec pause, 10 sec homogenization) at 8800 rpm (Precellys Evolution homogenizer, Bertin Instruments, France) or until the sample was considered homogenized.
Protein was precipitated from the tissue homogenate by adding three volumes of acetonitrile. Samples were centrifuged for 30 min at 4°C and the supernatants analyzed on a QTRAP® Triple Quadrupole coupled with an Acquity liquid chromatography system (Waters, USA).

[5] = system: regional subcutaneous blood flow; experiment: Xenon-133 washout after injection into the neck of pigs; format: in vivo, pig; settings: vehicle without insulin aspart, niacinamide 170 mM (n=21), prostaglandin E1 4 μg/ml (n=8), mean (±SD), saline –0.71
Procedure: For each experiment, an insulin aspart containing vehicle was injected on one side of a pig, while the same vehicle without insulin aspart was injected into the other side. Prostaglandin E1 was included as a positive control. A gamma sensor was mounted over each injection site to measure the decay in Xe-133 signal. […] Regression line slopes in the 0–15 min interval were compared using one-way analysis of variance (ANOVA).

| EC50 ([2]; Sus scrofa, sc, cumulative 1 μM–200 mM, PSS 37°C pH 7.4, six animals) | SMILES | Skin perfusion by LASCA compared with saline (skin perfusion [1]) | Effect on vascular tone (vasorelaxation) [2] | Skin perfusion by LDI compared with saline (skin perfusion [3]) | Amount remaining in subcutaneous depot 60 min post-injection [4] | Xe-133 washout regression line slope, 0–15 min interval [5] |
| --- | --- | --- | --- | --- | --- | --- |
| 11.3 mM | NC(=O)c1cccnc1 [niacinamide] | intermediate increase | maximal vasorelaxation | increased skin perfusion | decreased to amounts comparable to the blank control | –1.24 % per min |
|  | C[n+]1cccc(C(N)=O)c1 [1-methyl-niacinamide] | did not increase the LASCA signal | no substantial effect on vascular tone; also recorded: vasorelaxation was not detected |  |  |  |
|  | CCCCC[C@H](O)/C=C/[C@H]1[C@H](O)CC(=O)[C@@H]1CCCCCCC(=O)O [prostaglandin E1] | clear increase in skin perfusion |  | increased skin perfusion |  | –2.47 % per min |
